Test results: ChEMBL document CHEMBL1201862, “PubChem BioAssay data set” (2004)
Values joined by “and” are separate entries in the source; they are usually repeats but may differ in a detail not shown here. Identical values can stand only once. Each block holds one compound with its values, some of them ahead of it. Active and inactive are the calls of the source.

Legend:
[1] = target: T1, Cytochrome P450 1A2 (Homo sapiens, UniProt P05177);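 note: PubChem cytochrome P450 panel assay, CYP1A2 panel member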
T1 sequence (P05177 whole entry): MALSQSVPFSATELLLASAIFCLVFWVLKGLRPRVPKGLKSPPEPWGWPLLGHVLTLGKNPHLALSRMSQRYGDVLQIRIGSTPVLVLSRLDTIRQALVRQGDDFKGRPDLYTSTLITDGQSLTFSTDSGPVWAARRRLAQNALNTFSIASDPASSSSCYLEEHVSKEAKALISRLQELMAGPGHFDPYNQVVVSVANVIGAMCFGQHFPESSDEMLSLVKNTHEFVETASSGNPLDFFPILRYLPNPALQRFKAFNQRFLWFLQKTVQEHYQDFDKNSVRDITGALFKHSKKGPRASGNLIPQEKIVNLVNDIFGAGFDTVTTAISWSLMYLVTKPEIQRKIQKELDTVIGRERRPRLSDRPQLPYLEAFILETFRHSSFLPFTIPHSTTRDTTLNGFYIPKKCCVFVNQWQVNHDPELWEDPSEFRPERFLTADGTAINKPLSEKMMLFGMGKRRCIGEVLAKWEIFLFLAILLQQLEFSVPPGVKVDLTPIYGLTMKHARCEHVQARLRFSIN

[2] = target: Cytochrome P450 3A4 (Homo sapiens, UniProt P08684);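 note: CYP3A4 tested as one member of a cytochrome P450 panel screen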
[3] = tested on: Streptococcus sp. 'group A'; experiment: growth inhibition of control SK(-) GAS strain, dose response, counter-screen for streptokinase expression inhibitor project, luminescence, kanamycin, BacTiterGlo, confirmation (AID 1900); assay type: functional, organism-based
[4] = tested on: Streptococcus; experiment: Group A Streptococcus viability loss, dose response, counter-screen for streptokinase expression inhibitor project, luminescence, BacTiterGlo (AID 1915); assay type: functional, organism-based;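 note: potency for reduction of bacterial viability or growth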
[5] = target: Cytochrome P450 2C9 (Homo sapiens, UniProt P11712)
[6] = target: Cytochrome P450 2D6 (Homo sapiens, UniProt P10635);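 note: CYP2D6 member of a cytochrome P450 panel assay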
[7] = cytotoxicity toward NIH3T3 fibroblasts, dose response, counter-screen, cell-based, ATP luminescence, mouse fibroblasts (AID 2010); assay type: functional;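 note: cells exposed to compound for about 90 hours before reading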
[8] = inhibitors of intracellular T. cruzi replication, confirmation, NIH3T3 host cells, beta-gal luminescence (AID 2044); assay type: functional, cell-based;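 note: intracellular parasites grown in NIH/3T3 mouse fibroblasts as host cells; luminescent beta-galactosidase reporter signal from transgenic T. cruzi replicating inside host cells; inhibitors lower the luminescence signal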
[9] = target: T2, Corticotropin-releasing factor receptor 2/Corticotropin-releasing factor-binding protein (Homo sapiens, UniProt P24387+Q13324); experiment: activators of CRF receptor 2 with binding protein – uHTS hits, confirmation (AID 602473); assay type: functional; settings: read-out: EC50_Mean
T2 sequence (Q13324 whole entry): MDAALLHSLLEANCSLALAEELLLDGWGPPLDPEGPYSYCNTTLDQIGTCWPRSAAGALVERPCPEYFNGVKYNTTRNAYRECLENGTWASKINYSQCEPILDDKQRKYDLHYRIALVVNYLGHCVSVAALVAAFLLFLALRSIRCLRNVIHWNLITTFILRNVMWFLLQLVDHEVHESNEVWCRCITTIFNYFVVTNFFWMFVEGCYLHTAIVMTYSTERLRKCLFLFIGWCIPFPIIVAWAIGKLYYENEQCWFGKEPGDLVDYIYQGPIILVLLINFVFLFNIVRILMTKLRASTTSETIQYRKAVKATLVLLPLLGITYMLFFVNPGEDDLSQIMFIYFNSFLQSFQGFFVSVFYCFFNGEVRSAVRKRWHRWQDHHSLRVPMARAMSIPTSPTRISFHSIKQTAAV
T2 sequence (P24387 whole entry): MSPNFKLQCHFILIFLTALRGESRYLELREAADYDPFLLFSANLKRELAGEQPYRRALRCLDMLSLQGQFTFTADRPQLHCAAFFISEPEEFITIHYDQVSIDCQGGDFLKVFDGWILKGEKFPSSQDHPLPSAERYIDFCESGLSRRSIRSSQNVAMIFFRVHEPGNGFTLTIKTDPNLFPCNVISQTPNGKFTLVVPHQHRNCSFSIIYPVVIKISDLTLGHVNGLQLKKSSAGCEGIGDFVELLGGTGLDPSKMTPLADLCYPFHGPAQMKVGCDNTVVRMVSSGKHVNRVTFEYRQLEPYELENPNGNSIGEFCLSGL

Cytochrome P450 3A4, sequence (P08684 whole entry): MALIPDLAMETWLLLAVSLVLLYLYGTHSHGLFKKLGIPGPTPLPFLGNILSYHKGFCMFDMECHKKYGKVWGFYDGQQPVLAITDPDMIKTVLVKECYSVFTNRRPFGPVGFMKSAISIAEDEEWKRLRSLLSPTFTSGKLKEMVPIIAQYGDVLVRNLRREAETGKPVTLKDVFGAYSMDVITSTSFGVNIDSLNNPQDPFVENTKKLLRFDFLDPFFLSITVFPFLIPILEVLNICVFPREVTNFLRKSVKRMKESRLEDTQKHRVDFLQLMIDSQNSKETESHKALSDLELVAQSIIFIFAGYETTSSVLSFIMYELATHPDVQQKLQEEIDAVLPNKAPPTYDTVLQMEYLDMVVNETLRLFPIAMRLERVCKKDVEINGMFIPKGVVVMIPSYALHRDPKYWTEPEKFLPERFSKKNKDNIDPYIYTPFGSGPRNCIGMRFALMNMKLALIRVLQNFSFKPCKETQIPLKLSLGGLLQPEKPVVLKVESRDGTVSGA
Cytochrome P450 2C9, sequence (P11712 whole entry): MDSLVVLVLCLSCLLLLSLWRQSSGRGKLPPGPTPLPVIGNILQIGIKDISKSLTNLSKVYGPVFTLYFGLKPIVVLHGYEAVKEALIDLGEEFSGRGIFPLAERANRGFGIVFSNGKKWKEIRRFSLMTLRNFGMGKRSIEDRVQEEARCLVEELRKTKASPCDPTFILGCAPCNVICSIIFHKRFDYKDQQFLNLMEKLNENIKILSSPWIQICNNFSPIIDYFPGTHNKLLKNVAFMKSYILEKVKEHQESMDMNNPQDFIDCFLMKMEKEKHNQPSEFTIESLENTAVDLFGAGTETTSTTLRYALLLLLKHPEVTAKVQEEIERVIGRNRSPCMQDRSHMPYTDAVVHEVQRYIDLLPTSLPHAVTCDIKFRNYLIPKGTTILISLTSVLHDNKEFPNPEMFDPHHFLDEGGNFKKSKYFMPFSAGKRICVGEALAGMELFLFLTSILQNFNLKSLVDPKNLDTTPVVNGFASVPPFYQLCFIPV
Cytochrome P450 2D6, sequence (P10635 whole entry): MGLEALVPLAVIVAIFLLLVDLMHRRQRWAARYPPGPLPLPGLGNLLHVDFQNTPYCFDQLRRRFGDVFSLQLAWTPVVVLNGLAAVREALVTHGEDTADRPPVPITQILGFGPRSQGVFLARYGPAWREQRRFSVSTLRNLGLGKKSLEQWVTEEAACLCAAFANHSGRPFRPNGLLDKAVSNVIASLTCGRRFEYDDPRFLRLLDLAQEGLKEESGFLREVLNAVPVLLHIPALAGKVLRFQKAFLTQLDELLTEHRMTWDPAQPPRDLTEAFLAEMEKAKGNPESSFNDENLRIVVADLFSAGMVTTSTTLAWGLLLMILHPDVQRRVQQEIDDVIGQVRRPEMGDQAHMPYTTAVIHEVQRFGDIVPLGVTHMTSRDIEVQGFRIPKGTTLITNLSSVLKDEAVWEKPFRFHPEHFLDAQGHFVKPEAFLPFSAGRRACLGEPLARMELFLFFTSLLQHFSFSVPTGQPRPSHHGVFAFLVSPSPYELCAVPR

- AC50 [1]: 39.8 µM (inconclusive)
SMILES: CO/C(O)=C1\C(C)=NC(C)=C([N+](=O)[O-])[C@@H]1c1ccccc1C(F)(F)F

- AC50 [2]: 3.98 µM (inconclusive)
SMILES: CC(C)COP(=O)(OCC(C)C)C(O)c1ccccc1F (stereo not drawn)

SMILES: Cc1cc(COC(=O)C2N3C(=O)[C@@H](NC(=O)COc4ccccc4)[C@H]3SC2(C)C)on1 (stereo partly drawn)
- EC50 [3]: 0.175 µM (active)
- EC50 [4]: 0.384 µM (active)

- AC50 [1]: 0.794 µM (inconclusive)
SMILES: CCNc1ncc2nc(-c3cc(F)cc(F)c3)c(=O)n(CCC#N)c2n1

- AC50 [5]: 1.26 µM (inconclusive)
SMILES: COc1ccc2[nH]cc(CCNc3ccnc(-c4ccccc4C)n3)c2c1

SMILES: O=[N+]([O-])c1cc(Cc2cc([N+](=O)[O-])c3cccnc3c2O)c(O)c2ncccc12
- AC50 [5]: 5.01 µM (inconclusive)
- AC50 [6]: 3.98 µM (inconclusive)

- AC50 [5]: 0.0708 µM (inconclusive)
- AC50 [6]: 25.1 µM (inconclusive)
- AC50 [1]: 28.2 µM (inconclusive)
SMILES: CN(C)c1nc2c(c(=O)[nH]c(=O)n2C)n1Cc1ccccc1Br

- AC50 [5]: 1.58 µM (inconclusive)
SMILES: CN(Cc1ccco1)c1ncnc2ccc(-c3ccccc3Cl)cc12

SMILES: c1ccc2c([C@@H]3CCN(CCN4CCOCC4)C3)c[nH]c2c1
- AC50 [6]: 3.98 µM (inconclusive)

- AC50 [2]: 15.8 µM (inconclusive)
SMILES: O=C(CSc1nnc(Cc2cc(O)nc(O)n2)n1-c1ccccc1)N1CCCc2ccccc21

SMILES: CCO[C@@H]1OC(C(=O)N2CCN(Cc3ccc4c(c3)OCO4)CC2)=C[C@H](C2CCCCC2)[C@H]1CCCO
- EC50 [7]: > 60 µM (not active)
- EC50 [8]: 1.01 µM (active)

- AC50 [2]: 20 µM (inconclusive)
- AC50 [1]: 31.6 µM (inconclusive)
SMILES: CC(=O)OCCNC(=O)c1cccnc1

- AC50 [5]: 6.31 µM (inconclusive)
SMILES: C[C@@H]1C[C@H](C)CN(S(=O)(=O)c2cc(Cl)c(Oc3ccc([N+](=O)[O-])cc3Cl)c(Cl)c2)C1

SMILES: COc1ccc2[nH]c(C)c(CCN(Cc3cccs3)C(S)=Nc3ccccc3OC)c2c1
- EC50 [7]: > 60 µM (not active)
- EC50 [8]: 2.08 µM (active)

- AC50 [2]: 15.8 µM (inconclusive)
SMILES: CCCN1CN=C(S)N(c2cccc(C)c2C)C1

- AC50 [6]: 25.1 µM (inconclusive)
SMILES: CC(C(=O)Nc1ccccc1Sc1ccccc1)N(c1ccccc1)S(C)(=O)=O (stereo not drawn)

- AC50 [1]: 2.51 µM (inconclusive)
SMILES: COc1ccc(-c2nc3cnc(N4CCOCC4)nc3n(Cc3cccs3)c2=O)cc1

- AC50 [2]: 25.1 µM (inconclusive)
- AC50 [1]: 20 µM (inconclusive)
SMILES: C#CCCCC(=O)Nc1ccccc1

SMILES: Cc1ccc(NC(=O)C2CCN(c3cnccn3)CC2)cc1C
- EC50 [7]: > 60 µM (not active)
- EC50 [8]: 1.55 µM (active)

SMILES: Cc1nc(O)c2nsc(C(=O)Nc3ccc(N4CCCC(O)C4)cc3)c2n1 (stereo not drawn)
- EC50 [3]: 3.32 µM (active)
- EC50 [4]: > 150 µM (not active)

- AC50 [6]: 0.0501 µM (inconclusive)
SMILES: COC(=O)[C@@]1(Cc2ccc(OC)cc2)[C@H]2c3cc(C(=O)N(C)C)n(CCc4ccc(OC)c(Br)c4)c3C[C@H]2CN1C(=O)c1ccccc1

- AC50 [1]: 28.2 µM (inconclusive)
SMILES: CCc1ccccc1NC(=O)C(C)n1nc([N+](=O)[O-])c(Br)c1C (stereo not drawn)

- AC50 [2]: 25.1 µM (inconclusive)
- AC50 [5]: 15.8 µM (inconclusive)
- AC50 [6]: 15.8 µM (inconclusive)
SMILES: CCC(=O)NCc1c(Cl)cccc1-n1cccc1

SMILES: CCn1cc(CN2CCCC(C(=O)c3ccc(-c4ccccc4)c(F)c3)C2)cn1 (stereo not drawn)
- EC50 [7]: > 60 µM (not active)
- EC50 [8]: 0.569 µM (active)

- AC50 [1]: 10 µM (inconclusive)
SMILES: Cn1c(C(=O)O)c(CC(=O)NCc2cccnc2)c2ccccc21

SMILES: Cc1ccc(-n2nnnc2SCC(=O)c2cc(C)n(CC3CCCO3)c2C)cc1 (stereo not drawn)
- EC50 [7]: > 30 µM (not active)
- EC50 [8]: 0.479 µM (active)

- AC50 [1]: 6.31 µM (inconclusive)
SMILES: CCCCn1c(SCc2c(C)noc2C)nc2cc(S(N)(=O)=O)ccc21

- AC50 [6]: 0.355 µM (inconclusive)
SMILES: C=CCc1cccc(C2Nc3ccccc3C(=O)N2O)c1O (stereo not drawn)

- AC50 [2]: 1.12 µM (inconclusive)
SMILES: Cc1nn(Cc2ccc(Cl)cc2)c(C)c1NC(=O)Cn1nc([N+](=O)[O-])c(Cl)c1C

SMILES: O=C(Nc1ncc(Cc2ccccc2Cl)s1)c1ccc(-c2cccc([N+](=O)[O-])c2)o1
- EC50 [7]: > 60 µM (inconclusive)
- EC50 [8]: 1.57 µM (active)

SMILES: O=C(NC(N1CCOCC1)C(Cl)(Cl)Cl)c1cc([N+](=O)[O-])cc([N+](=O)[O-])c1 (stereo not drawn)
- EC50 [7]: > 60 µM (not active)
- EC50 [8]: 0.9 µM (active)

SMILES: CCN1CCN(c2cc(C)c3cc(NC(=O)Cc4ccccc4OC)ccc3n2)CC1
- EC50 [7]: > 60 µM (not active)
- EC50 [8]: 1.14 µM (active)

SMILES: Clc1ccc(-c2noc(CN3CCCCC3)n2)cc1
- AC50 [6]: 3.16 µM (inconclusive)

- AC50 [6]: 39.8 µM (inconclusive)
SMILES: CCCC(=O)Nc1ccc(C(=O)NNC(=S)NC(=O)c2cccs2)cc1

- AC50 [6]: 39.8 µM (inconclusive)
SMILES: Cc1cnc(CNc2nc(-c3ccc(N(C)C)cc3)nc3ccccc23)cn1

- AC50 [5]: 17.8 µM (inconclusive)
SMILES: CCOC(=O)CN(C(=O)CCC(=O)Nc1cc(C)on1)C(C(=O)NC1CCCC1)c1cccnc1 (stereo not drawn)

- AC50 [2]: 22.4 µM (inconclusive)
- AC50 [5]: 12.6 µM (inconclusive)
SMILES: CCCc1c(O)c2ccccc2n(-c2ccccc2)c1=O

- AC50 [1]: 15.8 µM (inconclusive)
SMILES: Cc1cccc(C(CC(=O)N2CCCC2)c2ccccc2)c1O (stereo not drawn)

SMILES: CC(C)CCc1noc(CN(C)CC2CCN(Cc3ccccc3)CC2)n1
- EC50 [7]: > 60 µM (not active)
- EC50 [8]: 1.47 µM (active)

- AC50 [5]: 12.6 µM (inconclusive)
SMILES: COC(=O)c1cc(NC(=O)CC2NC3CCCCC3NC2=O)cc(C(=O)OC)c1 (stereo not drawn)

- AC50 [5]: 31.6 µM (inconclusive)
SMILES: O=c1onc(-c2cccs2)n1Cc1ccccc1

- AC50 [2]: 15.8 µM (inconclusive)
SMILES: CCOc1ccc(-n2c(SCC(=O)Nc3ccc(OC)cc3OC)nc3c(c2=O)SCC3)cc1

- AC50 [2]: 35.5 µM (inconclusive)
SMILES: COc1cccc(CNc2ccc(F)c(Cl)c2)c1O

- AC50 [1]: 14.1 µM (inconclusive)
SMILES: CCCCCCCCCn1cc(C(C)=O)c(=O)[nH]c1=O

- AC50 [6]: 20 µM (inconclusive)
- AC50 [1]: 15.8 µM (inconclusive)
SMILES: Clc1ccccc1-c1ccc2ncnc(NC3CCNCC3)c2c1

- AC50 [1]: 31.6 µM (inconclusive)
SMILES: Nc1nc(Nc2ccccc2)nc2c1ncn2[C@@H]1O[C@@H](CO)[C@H](O)[C@@H]1O

SMILES: O=C(Oc1ccccc1)N1CCC2(CCCN(C(c3ccccc3)c3ccccc3)C2)CC1
- AC50 [5]: 2 µM (inconclusive)

SMILES: O=C(O)c1ccccc1C1c2ccccc2Oc2ccccc21
- AC50 [5]: 3.98 µM (inconclusive)

SMILES: O=C(OC(c1ccccc1)c1nccc2ccccc12)c1cc([N+](=O)[O-])cc([N+](=O)[O-])c1 (stereo not drawn)
- EC50 [7]: > 60 µM (not active)
- EC50 [8]: 1.01 µM (active)

- AC50 [5]: 31.6 µM (inconclusive)
SMILES: CCCCC[C@H](O)c1cccc(OCc2ccc3ccccc3n2)c1

SMILES: Nc1nonc1-c1nc2ccccc2n1CC(=O)N/N=C\c1ccc(-c2ccc(Cl)cc2)o1
- EC50 [3]: 1.02 µM (active)
- EC50 [4]: 2.38 µM (active)

- EC50 [9]: > 53 µM (inactive)
SMILES: CCCCCn1/c(=N/C(=O)c2cccnc2)c(C#N)cc2c(=O)n3cccc(C)c3nc21

SMILES: CCOC(=O)c1cc2c(=O)n3ccccc3nc2n(C(C)C)/c1=N/C(=O)c1c(-c2c(F)cccc2Cl)noc1C
- EC50 [7]: > 60 µM (inconclusive)
- EC50 [8]: 2.18 µM (active)

SMILES: Cc1nn(-c2ccccc2)c(N2CCCC2)c1/C=N/NC(=O)c1cc(-c2ccccc2)nc2ccccc12
- EC50 [7]: > 60 µM (not active)
- EC50 [8]: 1.96 µM (active)

SMILES: CCCn1c(=O)c2[nH]c(C3CCCC3)nc2n(CCCOC(=O)c2ccc(S(=O)(=O)F)cc2)c1=O
- AC50 [2]: 3.16 µM (inconclusive)
- AC50 [5]: 3.16 µM (inconclusive)

SMILES: NCCNS(=O)(=O)c1cccc2cnccc12
- AC50 [2]: 20 µM (inconclusive) and 39.8 µM (inconclusive)
- AC50 [6]: 7.94 µM (inconclusive) and 25.1 µM (inconclusive)

SMILES: c1ccc([C@@H]2CN3CCSC3=N2)cc1 [DEXAMISOLE]
- AC50 [6]: 31.6 µM (inconclusive) and 10 µM (inconclusive) and 20 µM (inconclusive)
